pIC50: −log10 of the molar value.
Tests used:
human Chk2 kinase = human Chk2 kinase (Homo sapiens, UniProt O96017); test: biochemical
human Chk1 kinase = target: T1, human Chk1 kinase (Homo sapiens, UniProt O14757); test: biochemical
T1 sequence (O14757 1-476): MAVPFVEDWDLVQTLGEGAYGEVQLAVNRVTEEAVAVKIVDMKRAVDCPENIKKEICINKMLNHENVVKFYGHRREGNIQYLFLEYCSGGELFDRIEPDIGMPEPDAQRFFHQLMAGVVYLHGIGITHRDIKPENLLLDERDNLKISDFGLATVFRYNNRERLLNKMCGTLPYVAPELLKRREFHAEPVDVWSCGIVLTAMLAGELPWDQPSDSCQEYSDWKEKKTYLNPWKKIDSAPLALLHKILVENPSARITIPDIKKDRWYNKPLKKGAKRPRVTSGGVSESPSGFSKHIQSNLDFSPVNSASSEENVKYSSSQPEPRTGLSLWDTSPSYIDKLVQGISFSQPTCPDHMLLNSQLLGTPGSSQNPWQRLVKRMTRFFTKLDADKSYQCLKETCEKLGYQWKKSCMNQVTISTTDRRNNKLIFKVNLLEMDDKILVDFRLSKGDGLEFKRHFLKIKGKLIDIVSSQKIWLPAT

Sequence of human Chk2 kinase (O96017 whole entry): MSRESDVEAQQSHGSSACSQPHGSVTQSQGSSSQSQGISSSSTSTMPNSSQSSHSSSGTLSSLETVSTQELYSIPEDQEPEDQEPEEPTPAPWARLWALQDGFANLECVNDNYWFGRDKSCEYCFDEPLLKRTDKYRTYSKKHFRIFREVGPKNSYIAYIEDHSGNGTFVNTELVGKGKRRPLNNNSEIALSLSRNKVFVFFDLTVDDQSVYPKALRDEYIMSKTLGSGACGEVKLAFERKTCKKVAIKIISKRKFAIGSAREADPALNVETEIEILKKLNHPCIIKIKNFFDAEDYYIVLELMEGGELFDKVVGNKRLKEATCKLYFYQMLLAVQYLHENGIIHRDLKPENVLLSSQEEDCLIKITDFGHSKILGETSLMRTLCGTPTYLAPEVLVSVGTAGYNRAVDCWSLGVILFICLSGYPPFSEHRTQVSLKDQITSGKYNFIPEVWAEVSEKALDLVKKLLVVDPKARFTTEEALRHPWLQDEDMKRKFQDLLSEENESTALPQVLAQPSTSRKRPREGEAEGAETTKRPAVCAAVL

Structure (SMILES) | pIC50 (human Chk2 kinase) | pIC50 (human Chk1 kinase)
CN1CCOC(c2ccc(-n3cnc(Nc4cnc(C#N)cn4)c3)cc2)C1 (single isomer, unassigned) [Example 105, 5-((1-(4-(4-Methylmorpholin-2-yl)phenyl)-1H-imidazol-4-yl)amino)pyrazine-2-carbonitrile] | 4.00 to 5.00 | 7.00 to 7.50
CN(C)CC1CN(c2cccc(-n3cnc(Nc4cnc(C#N)cn4)c3)c2)CCO1 (single isomer, unassigned) [Example 107, 5-((1-(3-(2-((Dimethylamino)methyl)morpholino)phenyl)-1H-imidazol-4-yl)amino)pyrazine-2-carbonitrile] | 4.00 to 5.00 | 7.00 to 7.50
CN(CCO)C1CCN(c2cccc(-n3cnc(Nc4cnc(C#N)cn4)c3)c2)C1 (single isomer, unassigned) [Example 109, 5-((1-(3-(3-((2-Hydroxyethyl)(methyl)amino)pyrrolidin-1-yl)phenyl)-1H-imidazol-4-yl)amino)pyrazine-2-carbonitrile] | < 4.00 | 7.50 to 8.00
CN(C)C1CCCN(c2cccc(-n3cnc(Nc4cnc(C#N)cn4)c3)c2)C1 (single isomer, unassigned) [Example 111, 5-((1-(3-(3-(Dimethylamino)piperidin-1-yl)phenyl)-1H-imidazol-4-yl)amino)pyrazine-2-carbonitrile] | 4.00 to 5.00 | 7.00 to 7.50
N#Cc1cnc(Nc2cn(-c3ccc(N4CCC(N5CCC5)C4)cc3)cn2)cn1 (single isomer, unassigned) [Example 114, 5-((1-(4-(3-(Azetidin-1-yl)pyrrolidin-1-yl)phenyl)-1H-imidazol-4-yl)amino)pyrazine-2-carbonitrile] | 5.00 to 6.00 | > 8.00
CN(C)CC1CCN(c2ccc(-n3cnc(Nc4cnc(C#N)cn4)c3)cc2)C1 (single isomer, unassigned) [Example 115, 5-((1-(4-(3-((Dimethylamino)methyl)pyrrolidin-1-yl)phenyl)-1H-imidazol-4-yl)amino)pyrazine-2-carbonitrile] | – | 7.00 to 7.50
N#Cc1cnc(Nc2cn(-c3ccc(N4CCN5CCCC5C4)cc3)cn2)cn1 (single isomer, unassigned) [Example 117, 5-((1-(4-(Hexahydropyrrolo[1,2-a]pyrazin-2(1H)-yl)phenyl)-1H-imidazol-4-yl)amino)pyrazine-2-carbonitrile] | < 4.00 | 7.50 to 8.00
CN1CCC2(CCN2c2ccc(-n3cnc(Nc4cnc(C#N)cn4)c3)cc2)C1 (single isomer, unassigned) [Example 119, 5-((1-(4-(6-Methyl-1,6-diazaspiro[3.4]octan-1-yl)phenyl)-1H-imidazol-4-yl)amino)pyrazine-2-carbonitrile] | 4.00 to 5.00 | 7.50 to 8.00
CN(C)C1CCCN(c2ccc(-n3cnc(Nc4cnc(C#N)cn4)c3)cc2)C1 (single isomer, unassigned) [Example 121, 5-((1-(4-(3-(Dimethylamino)piperidin-1-yl)phenyl)-1H-imidazol-4-yl)amino)pyrazine-2-carbonitrile] | < 4.00 | > 8.00
CN(C)C1CCCN(c2ccc(-n3cnc(Nc4cnc(C#N)cn4)c3)cc2)C1 (single isomer, unassigned) [Example 122, 5-((1-(4-(3-(Dimethylamino)piperidin-1-yl)phenyl)-1H-imidazol-4-yl)amino)pyrazine-2-carbonitrile] | 4.00 to 5.00 | 7.50 to 8.00
CC1(C)CN(C2CCN(c3ccc(-n4cnc(Nc5cnc(C#N)cn5)c4)cc3)C2)C1 (single isomer, unassigned) [Example 123, 5-((1-(4-(3-(3,3-Dimethylazetidin-1-yl)pyrrolidin-1-yl)phenyl)-1H-imidazol-4-yl)amino)pyrazine-2-carbonitrile] | < 4.00 | 7.50 to 8.00
CC1CN(C2CCN(c3ccc(-n4cnc(Nc5cnc(C#N)cn5)c4)cc3)C2)C1 (single isomer, unassigned) [Example 125, 5-((1-(4-(3-(3-Methylazetidin-1-yl)pyrrolidin-1-yl)phenyl)-1H-imidazol-4-yl)amino)pyrazine-2-carbonitrile] | 5.00 to 6.00 | 7.50 to 8.00
CN1CCC12CCN(c1ccc(-n3cnc(Nc4cnc(C#N)cn4)c3)cc1)C2 (single isomer, unassigned) [Example 127, 5-((1-(4-(1-Methyl-1,6-diazaspiro[3.4]octan-6-yl)phenyl)-1H-imidazol-4-yl)amino)pyrazine-2-carbonitrile] | < 4.00 | 7.50 to 8.00
N#Cc1cnc(Nc2cn(-c3ccc(N4CCC(N5CC(F)C5)C4)cc3)cn2)cn1 (single isomer, unassigned) [Example 129, 5-((1-(4-(3-(3-Fluoroazetidin-1-yl)pyrrolidin-1-yl)phenyl)-1H-imidazol-4-yl)amino)pyrazine-2-carbonitrile] | < 4.00 | 7.00 to 7.50
N#Cc1cnc(Nc2cn(-c3ccc(N4CCC(N5CC(F)C5)C4)cc3)cn2)cn1 (single isomer, unassigned) [Example 130, 5-((1-(4-(3-(3-Fluoroazetidin-1-yl)pyrrolidin-1-yl)phenyl)-1H-imidazol-4-yl)amino)pyrazine-2-carbonitrile] | 5.00 to 6.00 | 7.50 to 8.00
N#Cc1cnc(Nc2cn(-c3ccc(N4CCC(N5CC6(CCC6)C5)C4)cc3)cn2)cn1 (single isomer, unassigned) [Example 131, 5-((1-(4-(3-(2-Azaspiro[3.3]heptan-2-yl)pyrrolidin-1-yl)phenyl)-1H-imidazol-4-yl)amino)pyrazine-2-carbonitrile] | 5.00 to 6.00 | 7.50 to 8.00
CC(C)C1CN(C2CCN(c3ccc(-n4cnc(Nc5cnc(C#N)cn5)c4)cc3)C2)C1 (single isomer, unassigned) [Example 133, 5-((1-(4-(3-(3-Isopropylazetidin-1-yl)pyrrolidin-1-yl)phenyl)-1H-imidazol-4-yl)amino)pyrazine-2-carbonitrile] | 4.00 to 5.00 | > 8.00
CC(C)C1CN(C2CCN(c3ccc(-n4cnc(Nc5cnc(C#N)cn5)c4)cc3)C2)C1 (single isomer, unassigned) [Example 134, 5-((1-(4-(3-(3-Isopropylazetidin-1-yl)pyrrolidin-1-yl)phenyl)-1H-imidazol-4-yl)amino)pyrazine-2-carbonitrile] | < 4.00 | 7.50 to 8.00
C[C@@H]1CCN1C1CCN(c2ccc(-n3cnc(Nc4cnc(C#N)cn4)c3)cc2)C1 (single isomer, unassigned) [Example 135] | 4.00 to 5.00 | 7.50 to 8.00
C[C@@H]1CCN1C1CCN(c2ccc(-n3cnc(Nc4cnc(C#N)cn4)c3)cc2)C1 (single isomer, unassigned) [Example 136] | < 4.00 | 7.00 to 7.50
C[C@H]1CCN1C1CCN(c2ccc(-n3cnc(Nc4cnc(C#N)cn4)c3)cc2)C1 (single isomer, unassigned) [Example 137] | < 4.00 | 7.50 to 8.00
C[C@H]1CCN1C1CCN(c2ccc(-n3cnc(Nc4cnc(C#N)cn4)c3)cc2)C1 (single isomer, unassigned) [Example 138] | 5.00 to 6.00 | > 8.00
CC1(C)CCN1C1CCN(c2ccc(-n3cnc(Nc4cnc(C#N)cn4)c3)cc2)C1 (single isomer, unassigned) [Example 139, 5-((1-(4-(3-(2,2-Dimethylazetidin-1-yl)pyrrolidin-1-yl)phenyl)-1H-imidazol-4-yl)amino)pyrazine-2-carbonitrile] | < 4.00 | 7.00 to 7.50
CN1CC2(C1)CN(c1ccc(-n3cnc(Nc4cnc(C#N)cn4)c3)cc1)C2 [Example 11, 5-((1-(4-(6-Methyl-2,6-diazaspiro[3.3]heptan-2-yl)phenyl)-1H-imidazol-4-yl)amino)pyrazine-2-carbonitrile] | – | 7.50 to 8.00
CN(C)[C@H]1CCN(c2ccc(-n3cnc(Nc4cnc(C#N)cn4)c3)cc2)C1 [Example 15, (S)-5-((1-(4-(3-(Dimethylamino)pyrrolidin-1-yl)phenyl)-1H-imidazol-4-yl)amino)pyrazine-2-carbonitrile] | – | 7.00 to 7.50
CN1CCN(C(=O)c2ccc(-n3cnc(Nc4cnc(C#N)cn4)c3)cc2)CC1 [Example 144, 5-((1-(4-(4-Methylpiperazine-1-carbonyl)phenyl)-1H-imidazol-4-yl)amino)pyrazine-2-carbonitrile] | – | 6.50 to 7.00
Cc1cc(N2CCN(C)CC2)ccc1-n1cnc(Nc2cnc(C#N)cn2)c1 [Example 145, 5-((1-(2-methyl-4-(4-Methylpiperazin-1-yl)phenyl)-1H-imidazol-4-yl)amino)pyrazine-2-carbonitrile] | – | 6.00 to 6.50
N#Cc1cnc(Nc2cn(-c3ccc(N4CC[C@@H](N5CCCC5)C4)cc3)cn2)cn1 [Example 147, (R)-5-((1-(4-([1,3′-Bipyrrolidin]-1′-yl)phenyl)-1H-imidazol-4-yl)amino)pyrazine-2-carbonitrile] | – | 7.50 to 8.00
CN[C@H]1CN(c2ccc(-n3cnc(Nc4cnc(C#N)cn4)c3)cc2)C[C@H]1OC [Example 163, 5-((1-(4-((3R,4S)-3-Methoxy-4-(methylamino)pyrrolidin-1-yl)phenyl)-1H-imidazol-4-yl)amino)pyrazine-2-carbonitrile] | – | 7.50 to 8.00
CCN1CCN(c2ccc(-n3cnc(Nc4cnc(C#N)cn4)c3)cc2)CC1 [Example 185, 5-((1-(4-(4-Ethylpiperazin-1-yl)phenyl)-1H-imidazol-4-yl)amino)pyrazine-2-carbonitrile] | – | 7.50 to 8.00

Reference: patent US20260132140A1, “IMIDAZOLYL-AMINO-PYRAZINE-CARBONITRILS AS CHK-1 INHIBITORS” (BenevolentAI Bio Limited, priority 2022, published 2026)
